Reference: paper PMC11434840, “Discovery of Benzopyrone-Based Candidates as Potential Antimicrobial and Photochemotherapeutic Agents through Inhibition of DNA Gyrase Enzyme B: Design, Synthesis, In Vitro and In Silico Evaluation” (Pharmaceuticals, 2024)
Read-outs that look alike come from different tables or passages of the source.

How the values were obtained:
[1] = test system: Bacillus subtilis ATCC 14579; assay: Antimicrobial agar cup-plate assay, B. subtilis; type: cell-based; design: key: -: no activity; conditions: 0.1 mL of compound in DMF, overnight incubation, mean ± SD, at least three experiments
Procedure: (§1) The antimicrobial activity of all newly synthesized compounds was determined using the agar cup-plate method using the Hi-Media agar medium. Xanthotoxin, tobramycin, and amphotericin B were used as reference drugs. All newly synthesized compounds were tested against two strains of Gram-positive bacteria (Bacillus subtilis ATCC 14579 and Staphylococcus aureus ATCC 25923), Gram-negative bacteria (Escherichia coli ATCC 25922), and yeast (Candida albicans ATCC 10231).
(§2) The nutrient agar medium consists of 0.3% of beef extract, 0.5% of peptone, 0.1% dipotassium hydrogen phosphate, and 1.5% agar. Broth cultures of the organisms were prepared by incubating slant agar seeded with the organisms overnight.
(§3) The prepared broth culture (0.02 mL) was carefully added to sterile Petri dishes. Then, 10 mL of the liquefied nutrient agar medium was poured into each dish, mixed uniformly, and allowed to solidify. Using a sterilized cork borer, cups (9 mm) were scooped out of the agar media contained in the Petri dishes. Each test compound (50 mg) was dissolved in 1 mL DMF (50 mg mL^−1), which was used as a stock solution to carry out the twofold dilution technique. A fixed volume (0.1 mL) of the tested compounds dissolved in dimethylformamide (DMF) was added. Each plate contained a cup filled with DMF to disregard the effect of solvent. Additionally, two other cups were filled with tobramycin and xanthotoxin being used as reference drugs. The plates were incubated overnight to examine the antimicrobial activity. Zones of inhibition obtained by each test compound were measured in millimeters and the results are recorded in Table 2.
(§4) GraphPad Prism-version 5 (GraphPad Software, Inc., La Jolla, CA, USA) was used for statistical analysis.

[2] = test system: Staphylococcus aureus ATCC 25923; assay: Antimicrobial agar cup-plate assay, S. aureus; type: cell-based; design: key: -: no activity; conditions: 0.1 mL of compound in DMF, overnight incubation, mean ± SD, at least three experiments
Procedure: as §1, §2, §3, §4

[3] = test system: Bacillus subtilis ATCC 14579; assay: Photosensitizing assay (MIC before and after UV irradiation, agar cup-plate); type: cell-based; design: key to MIC (mg mL^−1) Control / MIC (mg mL^−1) Test / MIC (mM) Control / MIC (mM) Test: -: no activity; conditions: B. subtilis; for MIC: Bacillus subtilis, ATCC14579, light or radiation study
Procedure: The photosensitizing activity was determined using the agar cup-plate method (described in Section 2.3) with Hi-Media agar medium. The antibacterial activity against Bacillus subtilis ATCC 14579 was measured before and after exposure to UV lamp (365 nm). The diameters of the inhibition zones were measured in mm and the results were compared with xanthotoxin. The tested organism used was Bacillus subtilis.
For the photosensitizing activity, xanthotoxin was used as a reference drug and DMF as a negative control. The minimum inhibitory concentrations (MIC) were determined using the agar cup-plate method. Each test compound (50 mg) was dissolved in 1 mL DMF (50 mg mL^−1), which was used as a stock solution to carry out the twofold dilution technique. The sample size for all the compounds was adjusted to 0.1 mL. The solution of the test compound (0.1 mL) was added to the cups. The plates were divided into test plates and duplicate plates. Before irradiation, the test plates were incubated in the dark at 37 °C for 3 h to permit the diffusion of the tested compounds through the agar layer. The duplicate plates were incubated overnight and used as a control for the determination of the antibacterial activity. The covers were removed from the test plates, and the dishes were exposed to UV lamp (365 nm) for 20 min. After irradiation, the plates were left overnight in the dark at 37 °C. MIC, the least concentration preventing visible bacterial growth, was determined in both the control and test, indicating the antibacterial and photosensitizing activity of the tested compounds, respectively.
To evaluate the significance of the difference in the results, each experiment was repeated at least three times. […] GraphPad Prism-version 5 (GraphPad Software, Inc., La Jolla, CA, USA) was used to perform statistical analysis of the results.

[4] = test system: Escherichia coli ATCC 25922; assay: Antimicrobial agar cup-plate assay, E. coli; type: cell-based; design: key to Inhibition Zone (mm) E. coli: -: no activity; conditions: for Inhibition Zone (mm) E. coli: 0.1 mL of compound in DMF, overnight incubation, mean ± SD, at least three experiments
Procedure: as §1, §2, §3, §4

[5] = test system: Candida albicans ATCC 10231; assay: Antimicrobial agar cup-plate assay, C. albicans; type: cell-based; design: key to Inhibition Zone (mm) C. albicans: -: no activity; conditions: 0.1 mL of compound in DMF, overnight incubation, mean ± SD, at least three experiments
Procedure: as §1, §2, §3, §4

E. coli DNA gyrase = target: T1, E. coli DNA gyrase (Escherichia coli, UniProt P0AES6); assay: In vitro DNA gyrase supercoiling inhibitory assay; type: biochemical; conditions: mean ± SD of three separate experiments
T1 construct: purchased John Innes Enterprises Ltd
Procedure: The supercoiling assay, based on DNA triplex, formation [43] was performed on the black streptavidin-coated 96-well microtiter plates (Thermo Scientific Pierce). Serial dilutions of the tested compounds and standard drugs were prepared, starting from 5.0 U/mL (5.0, 2.5, 1.25, 0.625, 0.312, 0.156, and 0.078 U/mL). The plates were first rehydrated with the supplied wash buffer [20 mM Tris-HCl (pH 7.6), 137 mM NaCl 0.01% (w/v), BSA 0.05% (v/v) Tween 20] and oligonucleotide was immobilized onto the wells. The excess oligonucleotide was then washed off, and the enzyme assay was carried out in the wells.
The final reaction volume of 30 μL in buffer [35 mM Tris × HCl (pH 7.5), 24 mM KCl, 4 mM MgCl2, 2 mM DTT (dithiothreitol), 1.8 mM spermidine, 1 mM ATP, 6.5% (w/v) glycerol, 0.1 mg/mL albumin] contained 1.5 U of gyrase from E. coli, 0.75 μg of relaxed pNO1 plasmid, and 3 μL of inhibitor solution in 10% DMSO and 0.008% Tween 20. Reactions were incubated for 30 min at 37 °C and after the addition of the TF buffer [50 mM NaOAc (pH 5.0), 50 mM NaCl, and 50 mM MgCl2], which terminated the enzymatic reaction for another 30 min at rt to allow the triplex formation. The unbound plasmid was then washed off using TF buffer, and a solution of SybrGOLD stain in T10 buffer [10 mM Tris × HCl (pH 8.0) and 1 mM EDTA] was added. After mixing, the fluorescence (excitation: 495 nm, emission: 537 nm) was measured using BioTek Synergy HT microplate reader. […] GraphPad Prism-version 5 (GraphPad Software, Inc., La Jolla, CA, USA) was used to determine the IC50 values of both the tested compounds and standard drugs across the different concentrations.

[6] = 20 min, after irradiation with UV lamp (365 nm) for 20 min (photosensitizing activity), 100 μL per cup, read-out: MIC (mg mL^−1) Test
[7] = 20 min, after irradiation with UV lamp (365 nm) for 20 min (photosensitizing activity), read-out: MIC (mM) Test
[8] = without irradiation (antibacterial activity), 100 μL per cup, read-out: MIC (mg mL^−1) Control
[9] = without irradiation (antibacterial activity), read-out: MIC (mM) Control
[10] = IC50 (μM) DNA gyrase supercoiling
[11] = IC50 (μg mL^−1) DNA gyrase supercoiling

Compound	Inhibition Zone (mm) B. subtilis [1]	Inhibition Zone (mm) S. aureus [2]	melting point	MIC [3, 6]	MIC [3, 7]	MIC [3, 8]	MIC [3, 9]	Inhibition Zone (mm) E. coli [4]	Inhibition Zone (mm) C. albicans [5]	antibacterial activity against E. coli (in words) [4]	IC50 (E. coli DNA gyrase; [10])	IC50 (E. coli DNA gyrase; [11])	MIC (mM) Test ([3]; after irradiation with UV lamp (365 nm) for 20 min (photosensitizing activity))	MIC (mg mL^−1) Test ([3]; after irradiation with UV lamp (365 nm) for 20 min (photosensitizing activity), 100 μL per cup)	MIC (mM) Control ([3]; without irradiation (antibacterial activity))	MIC (mg mL^−1) Control ([3]; without irradiation (antibacterial activity), 100 μL per cup)
CCc1cc2c(C)cc(=O)oc2c2c1oc1ccccc12 [Compound 6a, 6-Ethyl-4-methyl-2H-benzofuro[2,3-h]benzopyran-2-one]	20 ± 1.414 mm	30 ± 1.414 mm	120 to 122 °C	390 µg/mL	1.4 mM	3120 µg/mL	11.2 mM	23 ± 1.414 mm	21 ± 0.8165 mm							
CCc1cc2c(-c3ccccc3)cc(=O)oc2cc1OC(C)C(C)=O (stereo not shown) [Compound 2b, 6-Ethyl-7-(3-oxobutan-2-yloxy)-4-phenyl-2H-1-benzopyran-2-one]	14 ± 0.8165 mm	22 ± 1.414 mm	100 to 102 °C	6250 µg/mL	18.6 mM	6250 µg/mL	18.6 mM	-	15 ± 1.414 mm	inactive						
CCc1cc2c(C)cc(=O)oc2c2c(-c3ccccc3)coc12 [Compound 8a, 9-Ethyl-7-methyl-3-phenyl-5H-furo[2,3-h]benzopyran-5-one]	20 ± 1.414 mm	25 ± 1.414 mm	103 to 105 °C	97 µg/mL	0.32 mM	310 µg/mL	1.02 mM	30 ± 1.414 mm	-		7.89 ± 0.117 µM	7.89 µM				
CCc1cc2c(C)cc(=O)oc2cc1OCC(=O)c1ccc(OC)cc1 [Compound 7c, 6-Ethyl-4-methyl-7-(4-methoxyphenacyloxy)-2H-1-benzopyran-2-one]	10 ± 1.414 mm	-	162 to 164 °C	3120 µg/mL	8.87 mM	12500 µg/mL	35.5 mM	15 ± 1.414 mm	-							
CCc1cc2c(-c3ccccc3)cc(=O)oc2c2c(-c3ccccc3)coc12 [Compound 8d, 3,7-Diphenyl-9-ethyl-5H-furo[2,3-h]benzopyran-5-one]	12 ± 0.8165 mm	23 ± 1.414 mm	178 to 180 °C	97 µg/mL	0.26 mM	780 µg/mL	2.13 mM	30 ± 0.8165 mm	-		0.76 ± 0.0223 µM	0.764 µM				
CCc1cc2c(C)cc(=O)oc2c2c(-c3ccc(C)cc3)coc12 [Compound 8b, 9-Ethyl-7-methyl-3-(4-methylphenyl)-5H-furo[2,3-h]benzopyran-5-one]	10 ± 1.414 mm	30 ± 1.414 mm	149 to 151 °C	97 µg/mL	0.3 mM	780 µg/mL	2.45 mM	30 ± 1.414 mm	-		38.6 ± 0.513 µM	38.6 µM				
CCc1cc2c(-c3ccccc3)cc(=O)oc2c2c(-c3ccc(C)cc3)coc12 [Compound 8e, 9-Ethyl-3-(4-methylphenyl)-7-phenyl-5H-furo[2,3-h]benzopyran-5-one]	20 ± 1.414 mm	22 ± 1.414 mm	80 to 81 °C	97 µg/mL	0.25 mM	390 µg/mL	1.03 mM	25 ± 0.8165 mm	-							
CCc1cc2c(-c3ccccc3)cc(=O)oc2c2c1oc1ccccc12 [Compound 6b, 6-Ethyl-4-phenyl-2H-benzofuro[2,3-h]benzopyran-2-one]	22 ± 1.414 mm	30 ± 1.414 mm	120 to 122 °C	1500 µg/mL	4.41 mM	3120 µg/mL	9.18 mM	17 ± 1.414 mm	15 ± 1.414 mm							
CCc1cc2c(-c3ccccc3)cc(=O)oc2cc1OCC(=O)c1ccccc1 [Compound 7d, 6-Ethyl-7-phenacyloxy-4-phenyl-2H-1-benzopyran-2-one]	9 ± 1.414 mm	-	153 to 155 °C	6250 µg/mL	16.3 mM	6250 µg/mL	16.3 mM	16 ± 1.414 mm	-							
CCc1cc2c(-c3ccccc3)cc(=O)oc2cc1OCC(=O)c1ccc(C)cc1 [Compound 7e, 6-Ethyl-7-(4-methylphenacyloxy)-4-phenyl-2H-1-benzopyran-2-one]	-	-	225 to 226 °C					20 ± 0.8165 mm	-				-	-	-	- ^d
CCc1cc2c(C)cc(=O)oc2c2c(-c3ccc(OC)cc3)coc12 [Compound 8c, 9-Ethyl-3-(4-methoxyphenyl)-7-methyl-5H-furo[2,3-h]benzopyran-5-one]	12 ± 1.414 mm	20 ± 0.8165 mm	110 to 111 °C	97 µg/mL	0.29 mM	780 µg/mL	2.33 mM	24 ± 1.414 mm	-							
CCc1cc2c(C)cc(=O)oc2cc1OCC(=O)c1ccc(C)cc1 [Compound 7b, 6-Ethyl-4-methyl-7-(4-methylphenacyloxy)-2H-1-benzopyran-2-one]	13 ± 1.414 mm	24 ± 1.414 mm	136 to 139 °C	190 µg/mL	0.56 mM	1500 µg/mL	4.46 mM	20 ± 1.414 mm	-							
